This is an account of results in patent publication US20160031839A1, “ARGININE […] INHIBITORS AND USES THEREOF” (EPIZYME, INC., priority 2013, published 2016).

Like-named read-outs stand apart in the source and are kept apart here.

The experiment addresses T1, CARM1 (PRMT4) (Homo sapiens, UniProt Q86X55).
T1 construct: Flag-CARM1-His was eluted with 200 ug/ml FLAG peptide in buffer A; made in house; host or cells: HEK 293F cells (BacMam baculovirus)
T1 sequence (Q86X55 2-585 isoform Q86X55-1): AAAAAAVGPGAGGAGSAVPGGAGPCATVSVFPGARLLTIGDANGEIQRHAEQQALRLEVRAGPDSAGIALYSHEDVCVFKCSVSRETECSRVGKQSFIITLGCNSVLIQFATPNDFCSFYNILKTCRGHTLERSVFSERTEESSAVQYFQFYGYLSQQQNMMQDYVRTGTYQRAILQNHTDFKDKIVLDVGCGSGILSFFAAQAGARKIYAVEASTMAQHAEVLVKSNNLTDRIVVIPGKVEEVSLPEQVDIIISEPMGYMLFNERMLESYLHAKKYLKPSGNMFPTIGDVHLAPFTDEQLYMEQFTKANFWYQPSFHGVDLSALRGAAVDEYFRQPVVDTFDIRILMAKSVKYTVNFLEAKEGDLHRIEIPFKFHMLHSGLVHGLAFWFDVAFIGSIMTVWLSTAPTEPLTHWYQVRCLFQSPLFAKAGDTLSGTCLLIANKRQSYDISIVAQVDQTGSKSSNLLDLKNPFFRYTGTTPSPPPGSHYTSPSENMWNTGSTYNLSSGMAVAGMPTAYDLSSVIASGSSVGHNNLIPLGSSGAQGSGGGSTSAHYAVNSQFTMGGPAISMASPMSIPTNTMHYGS
Kind of experiment: CARM1 Biochemical Assay. The source says: Peptide representative of human histone H3 residues 16-30 was synthesized with an N-terminal linker-affinity tag motif and a C-terminal amide cap by 21st Century Biochemicals. The peptide was purified by high-performance liquid chromatography (HPLC) to greater than 95% purity and confirmed by liquid chromatography mass spectrometry (LC-MS). The sequence was Biot-Ahx-[…]-amide and contained a monomethylated arginine at position 26 (SEQ ID NO.: 14).
Human CARM1 (PRMT4) (NM_199141.1) transcript clone was amplified from an HEK 293 cDNA library, incorporating a flanking 5′ sequence encoding a FLAG tag ([…]) (SEQ ID NO.:6) fused directly to Ala 2 of CARM1 and 3′ sequence encoding a hexa His sequence ([…]) (SEQ ID NO.: 15) fused directly to Ser 608. The gene sequence encoding isoform1 containing a deletion of amino acids 539-561 was amplified subsequently and subcloned into pFastBacMam (Viva Biotech).
Column was washed with 500 mM NaCl in buffer A and Flag-CARM1-His was eluted with 200 ug/ml FLAG peptide in buffer A. Pooled fractions were dialyzed in 20 mM Tris, 150 mM NaCl, 5% glycerol and 1 mM DTT, pH 7.8. The purity of recovered protein was 94.
General Procedure for CARM1 Enzyme Assays on Peptide Substrates.
The assays were all performed in a buffer consisting of 20 mM Bicine (pH=7.6), 1 mM TCEP, 0.005% BSG, and 0.002% Tween 20, prepared on the day of use. Compounds in 100% DMSO (1 ul) were spotted into a polypropylene 384-well V-bottom plates (Greiner) using a Platemate Plus outfitted with a 384-channel head (Thermo Scientific). DMSO (1 ul) was added to Columns 11, 12, 23, 24, rows A-H for the maximum signal control and 1 ul of SAH, a known product and inhibitor of CARM1, was added to columns 11, 12, 23, 24, rows I-P for the minimum signal control. A cocktail (40 ul) containing the CARM1 enzyme was added by Multidrop Combi (Thermo-Fisher). The compounds were allowed to incubate with CARM1 for 30 min at room temperature, then a cocktail (10 ul) containing ^3H-SAM and peptide was added to initiate the reaction (final volume=51 ul). The final concentrations of the components were as follows: CARM1 was 0.25 nM, ^3H-SAM was 30 nM, peptide was 250 nM, SAH in the minimum signal control wells was 1 mM, and the DMSO concentration was 2%. The assays were stopped by the addition of non-radiolabeled SAM (10 ul) to a final concentration of 300 uM, which dilutes the ^3H-SAM to a level where its incorporation into the peptide substrate is no longer detectable. […] The plates were then read in a PerkinElmer TopCount plate reader to measure the quantity of ^3H-labeled peptide bound to the Flashplate surface, measured as disintegrations per minute (dpm) or alternatively, referred to as counts per minute (cpm). […]

Setting [1] is: Table 2, biochemical evaluation, read-out: PRMT4 IC50 (class).
The mark [2] stands for this setting: Table 2a, numerical, single experiment or average of multiple experiments, read-out: PRMT4 IC50.

In general, IC50 refers to the concentration needed to halve the response being measured.

As to `CN(CCN)Cc1ncoc1-c1ccc(C#N)cc1` [Compound 1, 4-(4-(((2-aminoethyl)(methyl)amino)methyl)oxazol-5-yl)benzonitrile], the 50% inhibitory concentration (IC50) reads like this: under setting [1], over 10 µM; under setting [2], over 10 µM.
On to `CN(CCN)Cc1ccnn1-c1ccc(C#N)cc1` [Compound 2, 4-(5-(((2-aminoethyl)(methyl)amino)methyl)-1H-pyrazol-1-yl)benzonitrile], for which the IC50 is over 10 µM under setting [1] and over 10 µM under setting [2].
